Experimental data as given in US20250249008A1, “PHARMACEUTICAL COMPOSITIONS OF ENSIFENTRINE FOR CHRONIC OBSTRUCTIVE PULMONARY DISEASE” (Verona Pharma PLC, priority 2024, published 2025).

Legend:
[1] = test system: patients with moderate to severe COPD; experiment: Clinical study in COPD: moderate/severe COPD exacerbations (rate ratio, time to first exacerbation); type: in vivo, human
Excerpt: A COPD exacerbation may be a moderate COPD exacerbation or a severe COPD exacerbation. A moderate exacerbation is defined as worsening symptoms of COPD (as defined hereinabove) requiring a minimum of three days of treatment with oral/systemic corticosteroids and/or antibiotics. A severe exacerbation is defined as worsening symptoms of COPD (as defined hereinabove) requiring in-patient hospitalization. In some embodiments, the pharmaceutical compositions provided herein reduce the severity of COPD exacerbations in a patient, and may be used in preventing severe COPD exacerbations in a subject. In some embodiments, pharmaceutical compositions reduce the severity of COPD exacerbations. In some embodiments, […]
Ensifentrine's ability to reduce the frequency and or severity of COPD exacerbations was studied in 1,549 subjects. Ensifentrine's ability to reduce the frequency and or severity of COPD exacerbations was assessed in various subgroup populations. In one part of the study, subjects were assessed based on whether they were diagnosed with mild or moderate COPD or severe or very severe COPD. […]
These subjects were also assessed for the time to first moderate/severe COPD exacerbation, as measured by a hazard ratio from a Cox model. […]

[2] = test system: patients with moderate to severe COPD; experiment: Clinical study in COPD: dyspnea by transition dyspnea index (TDI) in subjects using LABA + ICS; type: in vivo, human
Method: A clinical study was conducted to determine the efficacy of ensifentrine in treating COPD compared with placebo. Ensifentrine was administered by nebulizer at a dose of 3 mg twice daily (BID) for 24 weeks. The study was a multicenter, randomized, double-blind, parallel group, placebo-controlled trial with around 800 patients and 5:3 randomization.
The study population included patients aged 40-80 years with moderate to severe COPD (FEV1 30%-70% p.n., FEV1/forced vital capacity (FVC) ratio<0.7, with mMRC≥2). The randomization stratified (a) the use of stable background maintenance LAMA or LABA therapy use (approx. 50% yes or no) and (b) cigarette smoking (current or former). Inhaled corticosteroid (ICS) maintenance therapy was permitted in up to 20% of patients under certain provisions.
Ensifentrine was studied for its ability to treat COPD in subjects using inhalable corticosteroids (ICS) while also using a LABA.

Question: How did the Reductions in exacerbations ([1]; subjects with baseline blood eosinophil concentrations of greater than 150 cells/μL) turn out when `COc1cc2c(cc1OC)-c1c/c(=N\c3c(C)cc(C)cc3C)n(CCNC(N)=O)c(=O)n1CC2` [Ensifentrine, N-(2-{(2E)-9,10-dimethoxy-4-oxo-2-[(2,4,6-trimethylphenyl)imino]-6,7-dihydro-2H-pyrimido[6,1-a]isoquinolin-3(4H)-yl}ethyl)urea] was run?
Answer: The Reductions in exacerbations was “Reductions in exacerbations were observed”.

Question: And the Reductions in exacerbations ([1]; subjects with baseline blood eosinophil concentrations of less than or equal to 150 cells/μL)?
Answer: The Reductions in exacerbations was “Reductions in exacerbations were observed”.

Question: What about the “Transition Dyspnea Index, LS Mean” value ([2]; COPD medication LABA + ICS) of the same compound?
Answer: Its value is 1.394 (0.4748).

Question: What about the “Transition Dyspnea Index, Estimate (Ensi-Pla)” value ([2]; COPD medication LABA + ICS, difference ensifentrine minus placebo) of the same compound?
Answer: The value was 0.768.

Question: And the “Dyspnea compared to placebo” value ([2]; subjects taking LABA and ICS)?
Answer: The value was “exhibited improvements in dyspnea”.
